Assay results: patent US10717716B2, “1,3,4-oxadiazole derivative compounds as histone deacetylase 6 inhibitor, and the pharmaceutical composition comprising the same” (Chong Kun Dang Pharmaceutical Corp., priority 2015, dated 2020)

Biological target: T1, human recombinant HDAC6 (Homo sapiens, UniProt Q9UBN7)
T1 construct: purchased Calbiochem 382180
T1 sequence (Q9UBN7 1-1215): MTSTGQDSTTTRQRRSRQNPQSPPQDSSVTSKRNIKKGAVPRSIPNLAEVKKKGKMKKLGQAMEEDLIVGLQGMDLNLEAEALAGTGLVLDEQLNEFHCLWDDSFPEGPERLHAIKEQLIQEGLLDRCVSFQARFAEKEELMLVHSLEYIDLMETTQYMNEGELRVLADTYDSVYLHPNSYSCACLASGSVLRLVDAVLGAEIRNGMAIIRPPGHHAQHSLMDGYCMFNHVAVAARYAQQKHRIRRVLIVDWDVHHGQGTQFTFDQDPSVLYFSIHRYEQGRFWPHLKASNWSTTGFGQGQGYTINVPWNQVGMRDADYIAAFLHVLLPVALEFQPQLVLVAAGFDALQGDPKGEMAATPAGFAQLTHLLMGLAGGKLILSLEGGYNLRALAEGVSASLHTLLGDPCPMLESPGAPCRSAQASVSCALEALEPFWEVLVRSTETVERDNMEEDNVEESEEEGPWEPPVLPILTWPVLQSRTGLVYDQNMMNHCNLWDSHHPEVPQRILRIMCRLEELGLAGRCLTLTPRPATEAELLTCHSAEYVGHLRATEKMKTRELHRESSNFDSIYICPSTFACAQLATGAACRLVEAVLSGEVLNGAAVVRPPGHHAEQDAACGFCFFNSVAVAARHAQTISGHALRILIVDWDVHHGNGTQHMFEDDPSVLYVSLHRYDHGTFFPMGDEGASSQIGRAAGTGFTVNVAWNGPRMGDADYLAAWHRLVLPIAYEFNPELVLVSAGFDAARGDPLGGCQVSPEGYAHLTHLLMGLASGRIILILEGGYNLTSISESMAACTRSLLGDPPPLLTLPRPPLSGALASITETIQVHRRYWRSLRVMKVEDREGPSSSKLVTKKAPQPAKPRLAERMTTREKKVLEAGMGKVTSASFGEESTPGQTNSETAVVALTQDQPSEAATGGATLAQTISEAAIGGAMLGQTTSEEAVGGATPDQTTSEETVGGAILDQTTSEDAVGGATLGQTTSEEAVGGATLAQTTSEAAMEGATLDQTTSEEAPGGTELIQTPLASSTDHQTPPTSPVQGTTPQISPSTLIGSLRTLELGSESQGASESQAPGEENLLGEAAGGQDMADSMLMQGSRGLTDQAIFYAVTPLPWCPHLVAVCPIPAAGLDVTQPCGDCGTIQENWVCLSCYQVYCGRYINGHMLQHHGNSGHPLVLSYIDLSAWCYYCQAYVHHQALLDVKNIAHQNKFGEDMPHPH
Assay: HDAC6 enzyme activity inhibition assay (HDAC Fluorimetric Drug Discovery Kit)
Assay type: biochemical
Settings: for HDAC6 selectivity (fold): HDAC6 over HDAC1; for IC50: human recombinant HDAC6, same protocol as HDAC1, read-out: HDAC6
Summary of the method: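 Human recombinant HDAC1 or HDAC6 (0.3 μg) reacted with 10 μM Fluor de Lys-SIRT1 substrate and 5-fold compound dilutions for 60 min at 30 °C. Developer II added for 30 min, fluorescence read at Ex 360/Em 460; IC50 calculated from the readings.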

Structure (SMILES)	HDAC6 selectivity (fold)	IC50 [nM]
O=C(N1CC2(COC2)C1)N(Cc1ccc(-c2nnc(C(F)F)o2)cc1F)c1ccccc1 [Compound 21522, N-(4-(5-(difluoromethyl)-1,3,4-oxadiazol-2-yl)-2-fluorobenzyl)-N-phenyl-2-oxa-6-azaspiro[3.3]heptane-6-carboxamide]	455	22
CN1CCN(C(=O)N(Cc2ccc(-c3nnc(C(F)F)o3)cn2)c2ccccc2)CC1 [Compound 21527, N-((5-(5-(difluoromethyl)-1,3,4-oxadiazol-2-yl)pyridin-2-yl)methyl)-4-methyl-N-phenylpiperazine-1-carboxamide]	357	28
O=C(N1CCS(=O)(=O)CC1)N(Cc1ccc(-c2nnc(C(F)(F)F)o2)cc1F)c1cccc(OC(F)(F)F)c1 [Compound 21528, N-(2-fluoro-4-(5-(trifluoromethyl)-1,3,4-oxadiazol-2-yl)benzyl)-N-(3-(trifluoromethoxy)phenyl)thiomorpholine-4-carboxamide 1,1-dioxide]	47	214
O=C(N1CCOCC1)N(Cc1ncc(-c2nnc(C(F)F)o2)cn1)c1ccccc1 [Compound 21532, N-((5-(5-(difluoromethyl)-1,3,4-oxadiazol-2-yl)pyrimidin-2-yl)methyl)-N-phenylmorpholine-4-carboxamide]	208	48
CN1CCN(C(=O)N(Cc2ccc(-c3nnc(C(F)F)o3)cc2F)c2cccc(-c3ccccc3)c2)CC1 [Compound 21533, N-([1,1′-biphenyl]-3-yl)-N-(4-(5-(difluoromethyl)-1,3,4-oxadiazol-2-yl)-2-fluorobenzyl)-4-methylpiperazine-1-carboxamide]	70	143
CN1CCN(C(=O)N(Cc2ccc(-c3nnc(C(F)F)o3)cc2F)c2cccc(-c3ccncc3)c2)CC1 [Compound 21535, N-(4-(5-(difluoromethyl)-1,3,4-oxadiazol-2-yl)-2-fluorobenzyl)-4-methyl-N-(3-(pyridin-4-yl)phenyl)piperazine-1-carboxamide]	227	44
CN1CCN(C(=O)N(Cc2ccc(-c3nnc(C(F)F)o3)cc2F)c2ccc(-c3ccncc3)cc2)CC1 [Compound 21541, N-(4-(5-(difluoromethyl)-1,3,4-oxadiazol-2-yl)-2-fluorobenzyl)-4-methyl-N-(4-(pyridin-4-yl)phenyl)piperazine-1-carboxamide]	156	64
CN1CCN(C(=O)N(Cc2ccc(-c3nnc(C(F)F)o3)cc2F)c2ccc(-c3ccccc3)cc2)CC1 [Compound 21542, N-([1,1′-biphenyl]-4-yl)-N-(4-(5-(difluoromethyl)-1,3,4-oxadiazol-2-yl)-2-fluorobenzyl)-4-methylpiperazine-1-carboxamide]	164	61
CCN(CC)c1ccc(N(Cc2ccc(-c3nnc(C(F)(F)F)o3)cc2F)C(=O)N2CCS(=O)(=O)CC2)cc1 [Compound 21552, N-(4-(diethylamino)phenyl)-N-(2-fluoro-4-(5-(trifluoromethyl)-1,3,4-oxadiazol-2-yl)benzyl)thiomorpholine-4-carboxamide 1,1-dioxide]	7	1520
CN1CCN(C(=O)N(CCc2ccccc2)Cc2ccc(-c3nnc(C(F)F)o3)cc2F)CC1 [Compound 21554, N-(4-(5-(difluoromethyl)-1,3,4-oxadiazol-2-yl)-2-fluorobenzyl)-4-methyl-N-phenethylpiperazine-1-carboxamide]	65	155
O=C(N1CCOCC1)N(CCc1ccccc1)Cc1ccc(-c2nnc(C(F)F)o2)cc1F [Compound 21555, N-(4-(5-(difluoromethyl)-1,3,4-oxadiazol-2-yl)-2-fluorobenzyl)-N-phenethylmorpholine-4-carboxamide]	26	386
COc1ccccc1CCN(Cc1ccc(-c2nnc(C(F)F)o2)cc1F)C(=O)N1CCN(C)CC1 [Compound 21556, N-(4-(5-(difluoromethyl)-1,3,4-oxadiazol-2-yl)-2-fluorobenzyl)-N-(2-methoxyphenethyl)-4-methylpiperazine-1-carboxamide]	36	281

Continued, values first:

HDAC6 selectivity (fold)	IC50 [nM]	Structure (SMILES)
278	36	O=C(N1CCS(=O)(=O)CC1)N(Cc1ccc(-c2nnc(C(F)F)o2)cc1F)c1cccc(OC(F)(F)F)c1 [Compound 21529, N-(4-(5-(difluoromethyl)-1,3,4-oxadiazol-2-yl)-2-fluorobenzyl)-N-(3-(trifluoromethoxy)phenyl)thiomorpholine-4-carboxamide 1,1-dioxide]
167	60	O=C(N1CCS(=O)(=O)CC1)N(Cc1ccc(-c2nnc(C(F)(F)F)o2)cc1F)c1ccc(F)c(Cl)c1 [Compound 21530, N-(3-chloro-4-fluorophenyl)-N-(2-fluoro-4-(5-(trifluoromethyl)-1,3,4-oxadiazol-2-yl)benzyl)thiomorpholine-4-carboxamide 1,1-dioxide]
769	13	O=C(N1CCS(=O)(=O)CC1)N(Cc1ccc(-c2nnc(C(F)F)o2)cc1F)c1ccc(F)c(Cl)c1 [Compound 21531, N-(3-chloro-4-fluorophenyl)-N-(4-(5-(difluoromethyl)-1,3,4-oxadiazol-2-yl)-2-fluorobenzyl)thiomorpholine-4-carboxamide 1,1-dioxide]
175	57	CN1CCN(C(=O)N(Cc2ccc(-c3nnc(C(F)F)o3)cc2F)c2cccc(-c3ccoc3)c2)CC1 [Compound 21534, N-(4-(5-(difluoromethyl)-1,3,4-oxadiazol-2-yl)-2-fluorobenzyl)-N-(3-(furan-3-yl)phenyl)-4-methylpiperazine-1-carboxamide]
556	18	CN1CCN(C(=O)N(Cc2ccc(-c3nnc(C(F)F)o3)cc2F)c2cccc(-c3cccnc3)c2)CC1 [Compound 21536, N-(4-(5-(difluoromethyl)-1,3,4-oxadiazol-2-yl)-2-fluorobenzyl)-4-methyl-N-(3-(pyridin-3-yl)phenyl)piperazine-1-carboxamide]
145	69	CN1CCN(C(=O)N(Cc2ccc(-c3nnc(C(F)F)o3)cc2F)c2cccc(-c3ccc4c(cnn4C)c3)c2)CC1 [Compound 21537, N-(4-(5-(difluoromethyl)-1,3,4-oxadiazol-2-yl)-2-fluorobenzyl)-4-methyl-N-(3-(1-methyl-1H-indazol-5-yl)phenyl)piperazine-1-carboxamide]
333	30	CN1CCN(C(=O)N(Cc2ccc(-c3nnc(C(F)F)o3)cc2F)c2ccc(-c3cccnc3)cc2)CC1 [Compound 21540, N-(4-(5-(difluoromethyl)-1,3,4-oxadiazol-2-yl)-2-fluorobenzyl)-4-methyl-N-(4-(pyridin-3-yl)phenyl)piperazine-1-carboxamide]
294	34	O=C(N1CCS(=O)(=O)CC1)N(Cc1ccc(-c2nnc(C(F)F)o2)cc1F)c1ccc2c(c1)CCO2 [Compound 21544, N-(4-(5-(difluoromethyl)-1,3,4-oxadiazol-2-yl)-2-fluorobenzyl)-N-(2,3-dihydrobenzofuran-5-yl)thiomorpholine-4-carboxamide 1,1-dioxide]
476	21	Cn1ncc2ccc(N(Cc3ccc(-c4nnc(C(F)F)o4)cc3F)C(=O)N3CCS(=O)(=O)CC3)cc21 [Compound 21546, N-(4-(5-(difluoromethyl)-1,3,4-oxadiazol-2-yl)-2-fluorobenzyl)-N-(1-methyl-1H-indazol-6-yl)thiomorpholine-4-carboxamide 1,1-dioxide]
14	697	CCN(CC)c1ccc(N(Cc2ccc(-c3nnc(C(F)F)o3)cc2F)C(=O)N2CCS(=O)(=O)CC2)cc1 [Compound 21553]
